# Numbering of substitutions follows the chain as printed. Where “and” joins values, the source holds several entries; their conditions need not be identical. Equal values may be shown once.
# Assays:
# [1] = biological target: T1, PotF/D–E39D–F88A (Escherichia coli, UniProt P31133, A182D/D247S/F276W/F88A/L348Q/S38T/S87Y); experiment: ITC, PotF/D–E39D–F88A; format: binding; settings: 293 K
# T1 construct: without the N-terminal signal peptide; made in house; host or cells: E. coli BL21 (DE3)
# T1 sequence (P31133 27-370 S38T/S87Y/F88A/A182D/D247S/F276W/L348Q): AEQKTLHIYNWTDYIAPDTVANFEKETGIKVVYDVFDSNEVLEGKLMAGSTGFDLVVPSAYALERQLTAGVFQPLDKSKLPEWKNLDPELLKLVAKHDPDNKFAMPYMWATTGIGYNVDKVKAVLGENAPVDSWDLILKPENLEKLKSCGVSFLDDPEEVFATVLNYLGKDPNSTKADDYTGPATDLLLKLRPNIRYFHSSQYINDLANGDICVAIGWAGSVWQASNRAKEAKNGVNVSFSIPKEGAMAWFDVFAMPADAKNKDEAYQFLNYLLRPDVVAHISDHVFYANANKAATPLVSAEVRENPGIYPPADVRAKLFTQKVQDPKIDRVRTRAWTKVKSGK
# Experimental: (§1) Ligands were always freshly prepared in the exact same buffer as was used for the size exclusion run. Samples were degassed, and temperature was equilibrated using a degassing station (TA Instruments). About 400 μl protein sample of different concentrations (Table S5) depending on affinity was transferred into the sample cell of a nanoITC (TA Instruments), and 50 μl of about tenfold concentrated ligand solution was loaded into the injection needle. Multiple injection measurements were carried out at 293 K, 300 rpm stirring rate, and 250 s spacings between each 2 μl injection. The heat quantity past injection was determined by integration of the measured peaks. Every protein–ligand combination was measured as biological triplicate. Subtraction of heat of dilution measurements, peak integration, and one site binding fits were done with NanoAnalyze (TA Instruments). Reported errors are the errors between fits of the measured triplicates.
# [2] = biological target: T2, PotF/D–E39D–Y87S–F88Y (Escherichia coli, UniProt P31133, A182D/D247S/F276W/F88Y/L348Q/S38T); experiment: ITC, PotF/D–E39D–Y87S–F88Y; format: binding; settings: 293 K
# T2 construct: without the N-terminal signal peptide; made in house; host or cells: E. coli BL21 (DE3)
# T2 sequence (P31133 27-370 S38T/F88Y/A182D/D247S/F276W/L348Q): T1 sequence (P31133 27-370 S38T/S87Y/F88A/A182D/D247S/F276W/L348Q) with Y61S, A62Y
# Experimental: as §1
# [3] = tested on: PotD; settings: cited from earlier work
# [4] = ITC, 50 mM Tris pH 8, 300 mM NaCl, biological triplicates
compound,measurement,setting,value
"NCCCCNCCCN [SPD, spermidine]",n,[1]; ITC binding stoichiometry,0.98 ± 0.03
same,ΔG,[1]; ITC,-6.73 ± 0.03 kcal/mol
same,ΔH,[1]; ITC,-12.22 ± 0.35 kcal/mol
same,−TΔS,[1]; ITC,5.49 ± 0.36 kcal/mol
same,Kd,[1]; [4],9.6 ± 0.54 µM
same,n,[2]; ITC binding stoichiometry,0.99 ± 0.02
same,ΔG,[2]; ITC,-7.09 ± 0.15 kcal/mol
same,ΔH,[2]; ITC,-7.81 ± 0.21 kcal/mol
same,−TΔS,[2]; ITC,0.71 ± 0.32 kcal/mol
same,Kd,[2]; [4],~5.3 µM and 5.3 µM and 5.32 µM
same,ΔG,[3]; ITC,-11.13 ± 0.12 kcal/mol
same,ΔH,[3]; ITC,-16.40 ± 1.4 kcal/mol
same,−TΔS,[3]; ITC,5.24 ± 1.39 kcal/mol
same,Kd,[3],~0.006 µM
